Data taken from patent US5235045A, “Non-azo naphthalimide dyes” (priority 1992, dated 1993).
Where two headings read alike, the source gives them in different places.

Legend:
H9 cells = assay: Dye-mediated light kill of H9 cells (trypan blue); assay type: cell-based; conditions: Homo sapiens, read-out: Percent Viability
Protocol: Photoinduced killing of H9 cells with Compound 1b as the mediator of photochemical toxicity were carried out according to the following protocol:
Compound 1b was added to the H9 cells (5×10^5 /ml) in medium or 100% human plasma to give dye concentrations of 0, 25 and 100 μM (1 control, 2 duplicates of both non-azo dye samples). Two 2-ml aliquots of each of the duplicated dye samples was irradiated with 10J/cm^2 total energy of 450±35 nm wavelength light in a sealed 3-ml test tube. Immediately after irradiation, the cells were centrifuged at 450×g for 10 minutes, and the pellets resuspended in the original volume of fresh RPMI-1640+10% FCS+gentamycin. The cell suspensions were transferred to a 12-well TC plate and placed in a 37° C. 5% CO2 incubator. Cell viability counts (trypan blue) were carried out at 4, 24, 48, and 72 hours post irradiation. The results of these experiments are summarized in Tables 7 (medium) and 8 (100% human plasma).
Photoinduced killing of H9 cells with Compound VII as the mediator of photochemical toxicity were carried out in 10% FCS medium according to the same general protocol using concentrations of the dye at 0, 5, 25 and 100 μM., and irradiating at 420±5 nm at 10J/cm^2 total energy.

[1] = system: Herpes simplex virus type 1; assay: Effect of DiEd6Br and light on HSV-1 containing 15% fetal calf serum and human blood platelets (plaque assay); assay type: cell-based, MacIntyre strain; conditions: for log reduction at 0.156 µM / log reduction at 0.625 µM: Human alphaherpesvirus 1, Platelet, light or radiation study, read-out: Log10 Reduction
[2] = system: Human immunodeficiency virus (HIV); assay: Effect of DiEd6Br and light on HIV (MTT viability of MT-4 cells); assay type: cell-based; conditions: for Optical Density (MTT, MT-4 cells): mean of triplicate, 570 nm
[3] = H9, 4 h, no hν, 10% FCS medium, 4 hours
[4] = H9, 4 h, no hν, 100% human plasma, 4 hours
[5] = H9, 24 h, no hν, 10% FCS medium, 24 hours
[6] = H9, 24 h, no hν, 100% human plasma, 24 hours
[7] = H9, 48 h, no hν, 10% FCS medium, 48 hours
[8] = H9, 48 h, no hν, 100% human plasma, 48 hours
[9] = H9, 72 h, no hν, 10% FCS medium, 72 hours
[10] = H9, 72 h, no hν, 100% human plasma, 72 hours
[11] = H9, light or radiation study, 4 h, hν 10J/cm^2, 450±35 nm, 10% FCS medium, 4 hours
[12] = H9, light or radiation study, 4 h, hν 10J/cm^2, 450±35 nm, 100% human plasma, 4 hours
[13] = H9, light or radiation study, 24 h, hν 10J/cm^2, 450±35 nm, 10% FCS medium, 24 hours
[14] = H9, light or radiation study, 24 h, hν 10J/cm^2, 450±35 nm, 100% human plasma, 24 hours
[15] = H9, light or radiation study, 48 h, hν 10J/cm^2, 450±35 nm, 10% FCS medium, 48 hours
[16] = H9, light or radiation study, 48 h, hν 10J/cm^2, 450±35 nm, 100% human plasma, 48 hours
[17] = H9, light or radiation study, 72 h, hν 10J/cm^2, 450±35 nm, 10% FCS medium, 72 hours
[18] = H9, light or radiation study, 72 h, hν 10J/cm^2, 450±35 nm, 100% human plasma, 72 hours

Compound: CCCCCCNc1ccc2c3c(cccc13)C(=O)N(CCCCCC)C2=O [Compound 1b, 4-(hexyl)amino-N-hexyl-1,8-naphthalimide]
- viability at 25 µM (H9 cells; [3]): 96.9%
- viability at 25 µM (H9 cells; [4]): 97.2%
- viability at 100 µM (H9 cells; [3]): 94.6%
- viability at 100 µM (H9 cells; [4]): 99.2%
- viability at 25 µM (H9 cells; [5]): 94.8%
- viability at 25 µM (H9 cells; [6]): 93.4%
- viability at 100 µM (H9 cells; [5]): 94.6%
- viability at 100 µM (H9 cells; [6]): 94.3%
- viability at 25 µM (H9 cells; [7]): 90.5%
- viability at 25 µM (H9 cells; [8]): 86.4%
- viability at 100 µM (H9 cells; [7]): 91.3%
- viability at 100 µM (H9 cells; [8]): 90.7%
- viability at 25 µM (H9 cells; [9]): 91.4%
- viability at 25 µM (H9 cells; [10]): 85%
- viability at 100 µM (H9 cells; [9]): 85.1%
- viability at 100 µM (H9 cells; [10]): 87.4%
- viability at 25 µM (H9 cells; [11]): 62.8%
- viability at 25 µM (H9 cells; [12]): 97.9%
- viability at 100 µM (H9 cells; [11]): 87.2%
- viability at 100 µM (H9 cells; [12]): 97.4%
- viability at 25 µM (H9 cells; [13]): 8.4%
- viability at 25 µM (H9 cells; [14]): 94.4%
- viability at 100 µM (H9 cells; [13]): 52%
- viability at 100 µM (H9 cells; [14]): 92.4%
- viability at 25 µM (H9 cells; [15]): 10%
- viability at 25 µM (H9 cells; [16]): 86.5%
- viability at 100 µM (H9 cells; [15]): 64.8%
- viability at 100 µM (H9 cells; [16]): 92.6%
- viability at 25 µM (H9 cells; [17]): 30.6%
- viability at 25 µM (H9 cells; [18]): 90.2%
- viability at 100 µM (H9 cells; [17]): 71.4%
- viability at 100 µM (H9 cells; [18]): 88.2%

Compound: CCCCCCN1C(=O)c2cccc3c(NCCNC(=O)CCCCC(=O)NCCNc4c(Br)cc5c6c(cccc46)C(=O)N(CCCCCC)C5=O)c(Br)cc(c23)C1=O [Compound XLIV]
- PFU/ml ([1]; 0.156 μM, 5 J/cm^2): 7.4 × 10^7 PFU/ml
- PFU/ml ([1]; 0.156 μM, 10 J/cm^2): 6.0 × 10^7 PFU/ml
- PFU/ml ([1]; 0.156 μM, 20 J/cm^2): 1.5 × 10^7 PFU/ml
- PFU/ml ([1]; 0.156 μM, 40 J/cm^2): 4.5 × 10^6 PFU/ml
- PFU/ml ([1]; 0.156 μM, 60 J/cm^2): 1.5 × 10^6 PFU/ml
- PFU/ml ([1]; 625 μM (so in the source), 5 J/cm^2): 5.0 × 10^5 PFU/ml
- PFU/ml ([1]; 625 μM (so in the source), 10 J/cm^2): 4.5 × 10^5 PFU/ml
- PFU/ml ([1]; 625 μM (so in the source), 20 J/cm^2): 2.0 × 10^4 PFU/ml
- PFU/ml ([1]; 625 μM (so in the source), 40 J/cm^2): 1.1 × 10^3 PFU/ml
- PFU/ml ([1]; 625 μM (so in the source), 60 J/cm^2): None detected
- log reduction at 0.156 µM ([1]; 0.156 μM, 5 J/cm^2): 0.01
- log reduction at 0.156 µM ([1]; 0.156 μM, 10 J/cm^2): 0.1
- log reduction at 0.156 µM ([1]; 0.156 μM, 20 J/cm^2): 0.7
- log reduction at 0.156 µM ([1]; 0.156 μM, 40 J/cm^2): 1.22
- log reduction at 0.156 µM ([1]; 0.156 μM, 60 J/cm^2): 1.7
- log reduction at 0.625 µM ([1]; 5 J/cm^2): 2.18
- log reduction at 0.625 µM ([1]; 10 J/cm^2): 2.22
- log reduction at 0.625 µM ([1]; 20 J/cm^2): 3.58
- log reduction at 0.625 µM ([1]; 40 J/cm^2): 4.84
- log reduction at 0.625 µM ([1]; 60 J/cm^2): 7
- kill of HSV-1 ([1]; as low as 0.625 mM, 60 J/cm^2, 15% serum proteins and platelets): > 99.86%
- Optical Density (MTT, MT-4 cells) ([2]; 1.25 μM, 0 J/cm^2): 0.541
- Optical Density (MTT, MT-4 cells) ([2]; 1.25 μM, 20 J/cm^2): 1.242
- Optical Density (MTT, MT-4 cells) ([2]; 2.5 μM, 0 J/cm^2): 0.290
- Optical Density (MTT, MT-4 cells) ([2]; 2.5 μM, 20 J/cm^2): 1.309
- Optical Density (MTT, MT-4 cells) ([2]; 5 μM, 0 J/cm^2): 0.559
- Optical Density (MTT, MT-4 cells) ([2]; 5 μM, 20 J/cm^2): 1.337
- inactivation of HIV ([2]; 1.25 mM or greater (so in the source), light treated): essentially complete inactivation of HIV
